Laboratory results: patent publication US9145354B2, “Pharmaceutical compounds” (priority 2011, dated 2015)
Like-named read-outs stand apart in the source and are kept apart here.

What was measured:
[1] = Replicon Assay (Example B), Alamar Blue cytotoxicity CC50; type: cell-based; details: human, lower value of the cell pair
Source text: (§1) Thus, Huh-7 cells persistently infected with an HCV-RNA construct (Bartenschlager, R. Hepatitis C replicons: potential role for drug development. Nature Rev. Drug Discov. 1, 911-916 (2002)) comprising: 5′ and 3′ non-translated regions (NTR); the non-structural genes NS3 to NS5b; as well as the G418 drug resistance gene, neomycin, (for selection of cells carrying HCV replicon RNA) fused to the firefly Luciferase reporter gene (pFKI3889Iuc-ubi-neo/NS3-3′/ET) were used to determine the cell based antiviral activity of compounds using luciferase activity as an indirect readout of HCV RNA load. In this assay […] huh-7 cells persistently infected with the HCV subgenomic replicon construct above were plated/well in a 96 well tissue culture plate. The cells were allowed to attach overnight in DMEM medium supplemented with 10% FBS 1% NEAA, and 250 μg/ml gentamicin. The following day the medium was replaced with 200 μl/well of fresh medium as described above lacking gentamicin. Semilog dilutions of compounds in medium were then added to triplicate wells (non-edge) of the cultured cells to give a 0.1% DMSO final concentration. Plates were then incubated at 37° C. in an atmosphere of 5% CO2 and air for 72 h. […] The plate was then read at 535 nm (excitation) and 590 nm (emission) on a SpectraMax Gemini reader (Molecular Devices) to determine the number of viable cells by measuring the conversion of rezasurin (Alamar blue) to resorufin in response to mitochondrial activity. In order to determine the antiviral effect of these compounds EC50 values were determined by measuring the luciferase activity of the cells. Alamar blue solution was removed from the wells and replaced with 100 μl/well of medium along with 100 μl/well of Bright-Glo reagent and incubated at room temperature for 5 minutes before transferring 100 μl/well to a white bottom 96 well plate to read in a luminometer as described in the Bright-Glo Luciferase Assay System protocol (promega).

full length NS3/4a = full length NS3/4a (Hepatitis C virus genotype 1b (isolate BK) (HCV), UniProt P26663); assay: NS3 Protease Assay (Example A), FRET-based; type: biochemical
Method in brief: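 Full-length NS3/4a, made in-house, with an NS4A/B-derived peptide substrate carrying QXL520 quencher and 5-FAMsp fluorophore. Buffer 50 mM Tris pH8, 20 mM DTT, 1% CHAPS, 10% glycerol, 5% DMSO. Fluorescence followed 30 min at room temperature; IC50 from initial rates of replicate curves.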

[2] = test system: HCV subgenomic replicon in Huh-7 cells; assay: Replicon Assay (Example B), luciferase readout EC50; type: cell-based; details: Hepatitis C virus
Method: The activities of compounds of the invention against HCV in a cellular environment were analysed using a replicon assay as described below.
as §1

[3] = HCV NS3 protease assay, full length NS3/4a, read-out: Assay A IC50 (μM) average
[4] = Huh-7, replicon assay, luciferase readout, upper value of the cell pair, read-out: Assay B EC50
[5] = read-out: IC50 against the protease activity of the full length NS3/4a

full length NS3/4a, sequence (P26663 1027-1657): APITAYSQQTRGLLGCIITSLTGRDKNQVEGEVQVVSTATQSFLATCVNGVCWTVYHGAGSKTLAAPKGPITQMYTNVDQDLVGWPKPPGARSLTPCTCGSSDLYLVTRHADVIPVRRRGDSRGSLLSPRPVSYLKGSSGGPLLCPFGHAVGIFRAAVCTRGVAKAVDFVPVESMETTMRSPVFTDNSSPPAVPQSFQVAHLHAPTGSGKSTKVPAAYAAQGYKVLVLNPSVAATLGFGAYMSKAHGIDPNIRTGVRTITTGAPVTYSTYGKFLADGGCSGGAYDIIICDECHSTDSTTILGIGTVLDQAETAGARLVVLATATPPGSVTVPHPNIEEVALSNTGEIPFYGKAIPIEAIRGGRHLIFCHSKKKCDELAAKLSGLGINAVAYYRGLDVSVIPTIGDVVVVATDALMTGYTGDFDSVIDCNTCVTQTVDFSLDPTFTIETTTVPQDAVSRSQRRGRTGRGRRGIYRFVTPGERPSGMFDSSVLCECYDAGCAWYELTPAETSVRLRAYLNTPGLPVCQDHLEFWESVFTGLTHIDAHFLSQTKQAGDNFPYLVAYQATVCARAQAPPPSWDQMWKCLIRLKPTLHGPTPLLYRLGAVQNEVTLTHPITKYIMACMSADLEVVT

Compound	CC50 at 72 h [1] [nM]	IC50 (full length NS3/4a; [3]) [µM]	EC50 ([2]; Huh-7, pre-determined EC50 used to set concentrations in combination studies, read-out: EC50 (replicon)) [nM]	EC50 [2, 4] [nM]	inhibition at 0.01 µM (full length NS3/4a; @ 0.01 uM) [%]	IC50 (full length NS3/4a; [5]) [µM]
CC[C@@H](N[C@@H](C)CC(N)=O)c1ccc(Cl)c(C(=O)c2ccc(N)nc2)c1F [Example 81, (3S)-3-{[(1R)-1-{3-[(6-aminopyridin-3-yl)carbonyl]-4-chloro-2-fluorophenyl}propyl]-amino}butanamide]	> 3000	0.22	20	18		
CC[C@@H](N[C@@H](C)CC(=O)NCCN)c1ccc(Cl)c(C(=O)c2ccccc2)c1F [Example 88, (3S)-N-(2-aminoethyl)-3-{[(1R)-1-(3-benzoyl-4-chloro-2-fluorophenyl)propyl]-amino}butanamide]	> 3000			45	52	
CC[C@@H](N[C@@H](C)CC(N)=O)c1ccc(Cl)c(C(=O)c2ccc(F)c(F)c2)c1F [Example 90, (3S)-3-{[(1R)-1-{4-chloro-3-[(3,4-difluorophenyl)carbonyl]-2-fluorophenyl}propyl]amino}-butanamide]	> 3000	0.13		380		
CC[C@@H](N[C@@H](C)CC(N)=O)c1ccc(Cl)c(C(=O)c2ccc(C#N)cc2)c1F [Example 91, (3S)-3-{[(1R)-1-{4-chloro-3-[(4-cyanophenyl)carbonyl]-2-fluorophenyl}propyl]amino}-butanamide]	> 10000	0.066		1.2		
CC[C@@H](N[C@@H](C)CC(N)=O)c1ccc(Cl)c(C(=O)c2cccnc2)c1F [Example 93, (3S)-3-{[(1R)-1-{4-chloro-2-fluoro-3-[(pyridin-3-yl)carbonyl]phenyl}propyl]-amino}butanamide]	> 3000	0.14		510		
CC[C@@H](N[C@@H](C)CC(N)=O)c1ccc(Cl)c(C(=O)c2cccc(F)c2)c1F [Example 95, (3S)-3-{[(1R)-1-{4-chloro-2-fluoro-3-[(3-fluorophenyl)-carbonyl]-phenyl}propyl]-amino}-butanamide]	> 3000	0.085		41		
CC[C@@H](N[C@@H](C)CC(N)=O)c1ccc(Cl)c(C(=O)c2ccc(F)cc2)c1F [Example 97, (3S)-3-{[(1R)-1-{4-chloro-2-fluoro-3-[(4-fluorophenyl)-carbonyl]-phenyl}propyl]-amino}-butanamide]	> 3000	0.047		19		
CC[C@@H](N[C@@H](C)CC(N)=O)c1ccc(Cl)c(C(=O)c2cccc(C#N)c2)c1F [Example 101, (3S)-3-{[(1R)-1-{4-chloro-3-[(3-cyanophenyl)carbonyl]-2-fluorophenyl}propyl]amino}-butanamide]	> 3000	0.11		160		< 1
C[C@@H](CC(N)=O)N[C@@H](c1ccc(Cl)c(C(=O)c2ccccc2)c1F)C1CC1 [Example 103, (3S)-3-{[(R)-(3-benzoyl-4-chloro-2-fluorophenyl)-(cyclopropyl)-methyl]-amino}-butanamide]	> 3000	0.077		5.8		< 1
CC[C@@H](N[C@@H](C)CC(N)=O)c1ccc(Cl)c(C(=O)c2ccccn2)c1F [Example 104, (3S)-3-{[(1R)-1-{4-chloro-2-fluoro-3-[(pyridin-2-yl)carbonyl]phenyl}-propyl]amino}butanamide]	> 3000	0.24		390		< 1
CC[C@@H](N[C@@H](C)CC(N)=O)c1ccc(Cl)c(C(=O)c2ccncc2)c1F [Example 106, (3S)-3-{[(1R)-1-{4-chloro-2-fluoro-3-[(pyridin-4-yl)carbonyl]phenyl}-propyl]amino}butanamide]	> 3000	0.11		57		< 1
CC[C@@H](N[C@@H](C)CC(N)=O)c1ccc(Cl)c(C(=O)c2ccns2)c1F [Example 108, (3S)-3-{[(1R)-1-{4-chloro-2-fluoro-3-[(1,2-thiazol-5-yl)carbonyl]phenyl}propyl]-amino}butanamide]	> 3000	0.07		270		
